The supplement of paper PMC6045584
± gives the standard deviation of the averaged measurements.

Tests used:
ABT-737 = compound: CN(C)CC[C@H](CSc1ccccc1)Nc1ccc(S(=O)(=O)NC(=O)c2ccc(N3CCN(Cc4ccccc4-c4ccc(Cl)cc4)CC3)cc2)cc1[N+](=O)[O-] [ABT-737]; assay: surviving fraction relative to DMSO-only wells; higher = less growth inhibition; details: exposure time: 5 days
In short: (§1)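 Inhibitors were tested at 0.5, 1, 5, 10, 50, 100, 500 and 1000 nM, applied continuously for five days beginning 24 hours after log-phase tumour cells were seeded at 250–500 per well in 384-well plates. CellTiter-Glo luminescence served as the viability measure, expressed as surviving fraction against the median of DMSO-only wells. Each line, screened three times, was kept only with replicate Pearson r >0.7 and median Z' >0.3.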

17-AAG = compound: C=CCNC1=C2C[C@@H](C)C[C@H](OC)[C@H](O)[C@@H](C)/C=C(\C)[C@H](OC(N)=O)[C@@H](OC)/C=C\C=C(/C)C(=O)NC(=CC1=O)C2=O [17-AAG]; assay: as above; details: exposure time: 5 days
In short: as §1

CCK81 LARGE INTESTINE
surviving fraction (ABT-737; 0.5 nM): 0.869 ± 0.15 | surviving fraction (ABT-737; 1 nM): 0.887 ± 0.025 | surviving fraction (ABT-737; 5 nM): 0.83 ± 0.11 | surviving fraction (ABT-737; 10 nM): 0.847 ± 0.077 | surviving fraction (ABT-737; 50 nM): 0.859 ± 0.11 | surviving fraction (ABT-737; 100 nM): 0.724 ± 0.13 | surviving fraction (ABT-737; 500 nM): 0.678 ± 0.071 | surviving fraction (ABT-737; 1000 nM): 0.695 ± 0.053

G292 BONE
surviving fraction (17-AAG; 0.5 nM): 0.928 ± 0.035 | surviving fraction (17-AAG; 1 nM): 0.934 ± 0.031 | surviving fraction (17-AAG; 5 nM): 0.956 ± 0.052 | surviving fraction (17-AAG; 10 nM): 0.792 ± 0.018 | surviving fraction (17-AAG; 50 nM): 0.295 ± 0.018 | surviving fraction (17-AAG; 100 nM): 0.266 ± 0.0069 | surviving fraction (17-AAG; 500 nM): 0.0898 ± 0.01 | surviving fraction (17-AAG; 1000 nM): 0.087 ± 0.004 | surviving fraction (ABT-737; 0.5 nM): 1.06 ± 0.043 | surviving fraction (ABT-737; 1 nM): 1.03 ± 0.021 | surviving fraction (ABT-737; 5 nM): 1.08 ± 0.014 | surviving fraction (ABT-737; 10 nM): 1.02 ± 0.012 | surviving fraction (ABT-737; 50 nM): 1.07 ± 0.022 | surviving fraction (ABT-737; 100 nM): 1.06 ± 0.024 | surviving fraction (ABT-737; 500 nM): 1.02 ± 0.019 | surviving fraction (ABT-737; 1000 nM): 0.904 ± 0.027

HCC38 BREAST
surviving fraction (17-AAG; 0.5 nM): 0.802 ± 0.19 | surviving fraction (17-AAG; 1 nM): 0.906 ± 0.26 | surviving fraction (17-AAG; 5 nM): 0.293 ± 0.082 | surviving fraction (17-AAG; 10 nM): 0.185 ± 0.067 | surviving fraction (17-AAG; 50 nM): 0.0753 ± 0.022 | surviving fraction (17-AAG; 100 nM): 0.0727 ± 0.0085 | surviving fraction (17-AAG; 500 nM): 0.059 ± 0.0092 | surviving fraction (17-AAG; 1000 nM): 0.0613 ± 0.0025 | surviving fraction (ABT-737; 0.5 nM): 1.22 ± 0.037 | surviving fraction (ABT-737; 1 nM): 1.23 ± 0.086 | surviving fraction (ABT-737; 5 nM): 1.3 ± 0.23 | surviving fraction (ABT-737; 10 nM): 1.31 ± 0.049 | surviving fraction (ABT-737; 50 nM): 1.21 ± 0.11 | surviving fraction (ABT-737; 100 nM): 1.26 ± 0.17 | surviving fraction (ABT-737; 500 nM): 0.873 ± 0.12 | surviving fraction (ABT-737; 1000 nM): 0.714 ± 0.068

HCC70 BREAST
surviving fraction (17-AAG; 0.5 nM): 1.01 ± 0.09 | surviving fraction (17-AAG; 1 nM): 0.971 ± 0.066 | surviving fraction (17-AAG; 5 nM): 1.01 ± 0.046 | surviving fraction (17-AAG; 10 nM): 0.804 ± 0.0083 | surviving fraction (17-AAG; 50 nM): 0.091 ± 0.017 | surviving fraction (17-AAG; 100 nM): 0.0907 ± 0.012 | surviving fraction (17-AAG; 500 nM): 0.073 ± 0.017 | surviving fraction (17-AAG; 1000 nM): 0.0667 ± 0.0091 | surviving fraction (ABT-737; 0.5 nM): 1.07 ± 0.044 | surviving fraction (ABT-737; 1 nM): 1.11 ± 0.08 | surviving fraction (ABT-737; 5 nM): 1.1 ± 0.065 | surviving fraction (ABT-737; 10 nM): 1.11 ± 0.051 | surviving fraction (ABT-737; 50 nM): 1.06 ± 0.092 | surviving fraction (ABT-737; 100 nM): 1.03 ± 0.078 | surviving fraction (ABT-737; 500 nM): 1 ± 0.048 | surviving fraction (ABT-737; 1000 nM): 0.978 ± 0.032

HMLE3 BREAST
surviving fraction (17-AAG; 0.5 nM): 0.875 ± 0.029 | surviving fraction (17-AAG; 1 nM): 0.889 ± 0.079 | surviving fraction (17-AAG; 5 nM): 0.973 ± 0.037 | surviving fraction (17-AAG; 10 nM): 0.925 ± 0.062 | surviving fraction (17-AAG; 50 nM): 0.0453 ± 0.0025 | surviving fraction (17-AAG; 100 nM): 0.0247 ± 0.0011 | surviving fraction (17-AAG; 500 nM): 0.021 ± 0.002 | surviving fraction (17-AAG; 1000 nM): 0.024 ± 0.001 | surviving fraction (ABT-737; 0.5 nM): 1.06 ± 0.073 | surviving fraction (ABT-737; 1 nM): 1.06 ± 0.049 | surviving fraction (ABT-737; 5 nM): 1.15 ± 0.013 | surviving fraction (ABT-737; 10 nM): 1.17 ± 0.11 | surviving fraction (ABT-737; 50 nM): 1.1 ± 0.13 | surviving fraction (ABT-737; 100 nM): 1.17 ± 0.12 | surviving fraction (ABT-737; 500 nM): 1.17 ± 0.13 | surviving fraction (ABT-737; 1000 nM): 1.22 ± 0.1

HMT3552 BREAST
surviving fraction (17-AAG; 0.5 nM): 0.913 | surviving fraction (17-AAG; 1 nM): 0.915 | surviving fraction (17-AAG; 5 nM): 1.15 | surviving fraction (17-AAG; 10 nM): 0.904 | surviving fraction (17-AAG; 50 nM): 0.087 | surviving fraction (17-AAG; 100 nM): 0.064 | surviving fraction (17-AAG; 500 nM): 0.056 | surviving fraction (17-AAG; 1000 nM): 0.062 | surviving fraction (ABT-737; 0.5 nM): 1.01 ± 0.084 | surviving fraction (ABT-737; 1 nM): 1.02 ± 0.033 | surviving fraction (ABT-737; 5 nM): 1.04 ± 0.035 | surviving fraction (ABT-737; 10 nM): 0.979 ± 0.082 | surviving fraction (ABT-737; 50 nM): 1.1 ± 0.036 | surviving fraction (ABT-737; 100 nM): 1.23 ± 0.038 | surviving fraction (ABT-737; 500 nM): 1.03 ± 0.06 | surviving fraction (ABT-737; 1000 nM): 1.17 ± 0.03

HS57T BREAST
surviving fraction (17-AAG; 0.5 nM): 0.973 ± 0.08 | surviving fraction (17-AAG; 1 nM): 0.919 ± 0.025 | surviving fraction (17-AAG; 5 nM): 0.699 ± 0.064 | surviving fraction (17-AAG; 10 nM): 0.263 ± 0.032 | surviving fraction (17-AAG; 50 nM): 0.134 ± 0.011 | surviving fraction (17-AAG; 100 nM): 0.126 ± 0.0038 | surviving fraction (17-AAG; 500 nM): 0.105 ± 0.0035 | surviving fraction (17-AAG; 1000 nM): 0.106 ± 0.0049 | surviving fraction (ABT-737; 0.5 nM): 1.03 ± 0.056 | surviving fraction (ABT-737; 1 nM): 1.09 ± 0.011 | surviving fraction (ABT-737; 5 nM): 1.08 ± 0.072 | surviving fraction (ABT-737; 10 nM): 1.11 ± 0.093 | surviving fraction (ABT-737; 50 nM): 1.04 ± 0.01 | surviving fraction (ABT-737; 100 nM): 1.06 ± 0.066 | surviving fraction (ABT-737; 500 nM): 0.981 ± 0.039 | surviving fraction (ABT-737; 1000 nM): 0.965 ± 0.018

HS578T BREAST
surviving fraction (17-AAG; 0.5 nM): 0.904 ± 0.057 | surviving fraction (17-AAG; 1 nM): 0.928 ± 0.033 | surviving fraction (17-AAG; 5 nM): 0.525 ± 0.1 | surviving fraction (17-AAG; 10 nM): 0.409 ± 0.051 | surviving fraction (17-AAG; 50 nM): 0.281 ± 0.049 | surviving fraction (17-AAG; 100 nM): 0.234 ± 0.022 | surviving fraction (17-AAG; 500 nM): 0.213 ± 0.026 | surviving fraction (17-AAG; 1000 nM): 0.222 ± 0.026 | surviving fraction (ABT-737; 0.5 nM): 1.08 ± 0.11 | surviving fraction (ABT-737; 1 nM): 1.37 ± 0.23 | surviving fraction (ABT-737; 5 nM): 1.26 ± 0.15 | surviving fraction (ABT-737; 10 nM): 1.24 ± 0.11 | surviving fraction (ABT-737; 50 nM): 1.18 ± 0.073 | surviving fraction (ABT-737; 100 nM): 1.15 ± 0.15 | surviving fraction (ABT-737; 500 nM): 0.975 ± 0.021 | surviving fraction (ABT-737; 1000 nM): 0.955 ± 0.059
